What all share (assay type): cell-based, human
Test [1] deals with caspase-3/7 in THP-1 cells. Kind of test: Caspase 3/7 assay, THP-1. The note with it: THP-1, 48 h. As to the method: (§1) The activities of caspases-3 and −7 were estimated with CellEvent™ Caspse-3/7 Green Detection Reagent (Thermo Fisher Scientific) according to the manufacturer’s protocol. The cells were seeded on 96-well plates (15 × 10^3/ well) and 24 h later, incubated with the appropriate drugs for 24 h or 48 h. The cells were fixed by adding a final concentration of 4% paraformaldehyde solution (10 min, room temperature). Cells were labeled with CellEvent™Caspase-3/7 Green Detection Reagent (5 µM), followed by Hoechst 33342 (5 µg/ml) for 15 minutes in complete medium3. Caspase-3/7 Green Detection Reagent was diluted into PBS with 5% FBS to avoid fluorescence background. […] Fluorescence intensity was measured using a Fluoroskan Ascent FL plate reader (Labsystem, Sweden). Cysteine protease activity was expressed as a ratio of fluorescence of the drug-treated samples to the corresponding untreated controls (taken as 100%). In some experimental variants, cells were preincubated for 1 h with VE-821 (10 µM) or Z-FA-FMK (caspas-3 inhibitor, 0.5 µM) to confirm that the fluorescence observed in both control and drug-treated cells was due to the presence of caspase-3/7 in samples. […]

Test [2] has as its system caspase-3/7 in HL-60 cells. As to the kind of experiment: Caspase 3/7 assay, HL-60. The note with it: HL-60, 48 h. As to the method: The activities of caspases-3 and −7 were estimated with CellEvent™ Caspse-3/7 Green Detection Reagent (Thermo Fisher Scientific) according to the manufacturer’s protocol. The cells were seeded on 96-well plates (15 × 10^3/ well) and 24 h later, incubated with the appropriate drugs for 24 h or 48 h. The cells were fixed by adding a final concentration of 4% paraformaldehyde solution (10 min, room temperature). Cells were labeled with CellEvent™Caspase-3/7 Green Detection Reagent (5 µM), followed by Hoechst 33342 (5 µg/ml) for 15 minutes in complete medium3. Caspase-3/7 Green Detection Reagent was diluted into PBS with 5% FBS to avoid fluorescence background. After activation of caspase-3/7 in apoptotic cells, the DEVD peptide was cleaved, enabling the dye to bind DNA, which produced a bright, fluorogenic response with absorption/emission maxima of 502/530 nm according with manufacture protocol. Fluorescence intensity was measured using a Fluoroskan Ascent FL plate reader (Labsystem, Sweden). Cysteine protease activity was expressed as a ratio of fluorescence of the drug-treated samples to the corresponding untreated controls (taken as 100%). In some experimental variants, cells were preincubated for 1 h with VE-821 (10 µM) or Z-FA-FMK (caspas-3 inhibitor, 0.5 µM) to confirm that the fluorescence observed in both control and drug-treated cells was due to the presence of caspase-3/7 in samples. The caspase 3/7 signal was normalized to the Hoechst 33342 staining intensity to account for differences in cell seeding density (description in: Intracellular calcium assay section).

The subject of test [3] is MOLT-4 cells. As to the kind of experiment: Cell cycle analysis by flow cytometry, MOLT-4. The note with it: 80 nM, +VE-821 = 1 h preincubation. As to the method:
Cellular DNA content was quantified by flow cytometry. Cells were treated with drugs for 2, 24, and 48 h. For experiments with inhibitors, cells were subjected to 1 h preincubation with VE-821. CLA, CLA-FMOR, CLA-FPIP, or CLA-FPIR was added, and incubation continued for the indicated times under the same conditions. After incubation was completed, cells were collected, washed twice with PBS, and fixed in 70% ethanol. After ethanol fixation (at least 24 h at 4 °C), cells were washed in PBS and centrifuged at 7,000 × g for 10 min at 4 °C. Pelleted cells were stained by adding 300 µL PBS containing PI and RNase at final concentrations of 75 µM and 20 µg/mL, respectively. This was followed by 1 h incubation in total darkness at 37 °C. Stained cells were analyzed using a flow cytometer (Becton Dickinson, San Jose, CA, USA). The cell populations at specific phases of the cell cycle were quantified from a standard count of 10,000 cells using FlowJo cytology software (Ashland, OR, USA)[39],[40].

The test system of a further test is HL-60 cells. As to the kind of experiment: Alkaline comet assay, HL-60. The note with it: HL-60, 48 h. As to the method:
(§2) Single cell gel electrophoresis (comet assay) was used to detect alkali labile sites, single and double DNA strand breaks, and cross-links induced by genotoxic agents. After electrophoresis and gel staining with 4,6-diamidino-2-phenylindole (DAPI), the released DNA was visible under a fluorescence microscope as a characteristic comet tail. The cells were plated on 24-well plates (20,000 cells/mL) and treated with CLA, CLA-FMOR, CLA-FPIP, or CLA-FPIR at the indicated concentrations for 2, 24, and 48 h at 37 °C. Some cells were preincubated with an ATR kinase inhibitor (VE-821) for 1 h at 37 °C before adding the tested compounds. Next, cells were collected into Eppendorf tubes and rinsed with PBS. Then, cells were suspended in 0.75% low melting point (LMP) agarose dissolved in PBS (pH 7.4) and placed on microscope slides precoated with 0.5% normal melting point (NMP) agarose. […] The slides were stored in a wet chamber at 4 °C and analyzed under a fluorescence microscope. Fifty randomly selected cells from each slide were measured using image analysis (Nikon, Japan) attached to a COHU 4910 video camera, which was equipped with a UV-1 filter block consisting of an excitation filter (359 nm) and a barrier filter (461 nm) connected to the image analysis system Lucia-Comet v. […] In the samples preincubated with VE-821, the level of DNA damage associated with the ATR kinase was determined.

The subject of test [4] is caspase-3/7 in MOLT-4 cells. As to the kind of experiment: Caspase 3/7 assay, MOLT-4. The note with it: MOLT-4, 48 h. As to the method: as §1
Test [5] relates to MOLT-4 cells. As to the kind of experiment: Alkaline comet assay, MOLT-4. The note with it: MOLT-4, 48 h, 80 nM. As to the method: as §2
The next test relates to dCK in MOLT-4 cells. As to the kind of experiment: Deoxycytidine kinase activity, MOLT-4. The note with it: MOLT-4, 24 h incubation. The procedure: (§3) Deoxycytidine kinase activity was measured in accordance with the manufacturer’s protocol. The cells, at final concentration were plated at 1 × 10^6 cells per 24-well plates and cultured with the tested compounds for 24 h. Some cells were preincubated with an ATR kinase inhibitor (VE-821) for 1 h at 37 °C before adding the tested compounds. After drug treatment, the cells were washed with PBS and resuspended in an ice-cold cytosol extraction buffer containing 1 mM phenylmethylsulfonyl fluoride (PMSF) and a protease inhibitor cocktail. The cell lysate was centrifuged at 10,000 × g for 30 min at 4 °C. The protein concentration was determined using the Bradford method. The supernatant (cytosolic fraction) was collected and stored at −80 °C. The clarified cytoplasm extracts, dCK standards, and blank control were added to the appropriate microtiter plate wells with a biotin-conjugated polyclonal antibody prepared specifically for dCK. Avidin conjugated to horseradish peroxidase (HRP) was added to each microplate well and incubated. Then, a TMB substrate solution was added to the plate. […] The enzyme-substrate reaction was terminated by addition of a sulfuric acid solution. The color change was measured spectrophotometrically at a wavelength of 450 nm using a microplate reader (BioTek).

The test system of another test is dCK in HL-60 cells. As to the kind of experiment: Deoxycytidine kinase activity, HL-60. The note with it: HL-60, 24 h incubation. As to the method: as §3

Molecules are shown by their SMILES.

As for `OC[C@H]1O[C@@H](n2cnc3c(N=CN4CCCC4)nc(Cl)nc32)C[C@@H]1O` [CLA-FPIR, [6-deamino-6-(N′, N′-l′, 4′-tetramethyleneformamidino)] cladribine], the caspase-3/7 level result in test [1] and in test [2] was “highest changes” throughout.
As to `OC[C@H]1O[C@@H](n2cnc3c(N=CN4CCOCC4)nc(Cl)nc32)C[C@@H]1O` [CLA-FMOR, [6-deamino-6-(N′, N′-3′-oxa-1′, 5′-pentamethyleneformamidine)] cladribine], the “MOLT-4 (48h) S, percentage share of cell cycle phase” value in the test on MOLT-4 cells [3] stood at 46%. Also, the “DNA damage relative to that induced by the unmodified drug” value in the test on HL-60 cells was “two-fold higher”. For the same compound, the “DNA fragmentation, percentage of the DNA in the comet tail” value came to 24% with HL-60 cells (130 nM) and 27% in the test on MOLT-4 cells [5]. Further, the caspase-3/7 level entry in test [4] is given as “highest changes”. Besides, the dCK activity result with dCK in MOLT-4 cells and with dCK in HL-60 cells was “highest dCK activity” in each case.
